Measurements published in US6861390B2, “Derivatives of UK-2A” (priority 2001, dated 2005).

How the values were obtained:
[1] = system: Mycosphaerella graminicola (Septoria tritici, SEPTTR); test: microbe, parasite or virus in culture; format: cell-based; conditions: Zymoseptoria tritici, read-out: T11 SEPTTR in vitro Growth Inhibition
[2] = system: Leptosphaeria nodorum (LEPTNO); test: Glume Blotch of Wheat, whole plant 24 Hour Protectant (T2); conditions: Parastagonospora nodorum; wheat (cultivar Yuma), sprayed at 100 ppm, inoculated after 24 hours; read-out: T2 LEPTNO in vivo 1 Day Protectant, control of fungal infection
[3] = system: Puccinia recondita (PUCCRT); test: Brown Rust of Wheat, whole plant 24 Hour Protectant (T5); conditions: wheat (cultivar Yuma), sprayed at 100 ppm, inoculated after 24 hours, read-out: T5 PUCCRT in vivo 1 Day Protectant, control of fungal infection
[4] = system: Rhizoctonia solani (RHIZSO); test: microbe, parasite or virus in culture; format: cell-based; conditions: read-out: T10 RHIZSO in vitro Growth Inhibition
[5] = system: Stagonospora nodorum (Leptosphaeria nodorum, LEPTNO); test: microbe, parasite or virus in culture; format: cell-based; conditions: Parastagonospora nodorum, read-out: T7 LEPTNO in vitro Growth Inhibition
[6] = system: Septoria tritici (SEPTTR); test: Leaf Blotch of Wheat, whole plant 24 Hour Protectant (T6); conditions: Zymoseptoria tritici; wheat (cultivar Monon), sprayed at 100 ppm, inoculated after 24 hours; read-out: T6 SEPTTR in vivo 1 Day Protectant, control of fungal infection
[7] = system: Phytophthora infestans (PHYTIN); test: whole plant or invertebrate; conditions: in Solanum lycopersicum, 24 h, read-out: T3 PHYTIN in vivo 1 Day Protectant, control of fungal infection
Ustilago maydis (USTIMA) = test: microbe, parasite or virus in culture; format: cell-based; conditions: Mycosarcoma maydis, read-out: T12 USTIMA in vitro Growth Inhibition
[8] = system: Phytophthora infestans (PHYTIN); test: microbe, parasite or virus in culture; format: cell-based; conditions: in Secale cereale, read-out: T8 PHYTIN in vitro Growth Inhibition
[9] = system: Erysiphe graminis (ERYSGT); test: Powdery Mildew of Wheat, whole plant 24 Hour Protectant (T1); conditions: Blumeria graminis, in Triticum aestivum, read-out: T1 ERYSGT in vivo 1 Day Protectant, control of fungal infection
Procedure: Compound formulation was accomplished by dissolving technical materials in acetone, with serial dilutions then made in acetone to obtain desired concentrations. Final treatment volumes were obtained by adding 9 volumes 0.01% Triton X-100.
Powdery Mildew of Wheat (Erysiphe graminis—ERYSGT) (24 Hour Protectant): Wheat (cultivar Monon) was grown in a soilless peat-based potting mixture (“Metromix”) and mineral soil (50/50 mix) until the seedlings were 10-20 cm tall. These plants were then sprayed to run-off with the test compound at a rate of 100 ppm. After 24 hours the test plants were inoculated by dusting with conidia from powdery mildew infected wheat plants. The plants were then transferred to the greenhouse until disease developed on the untreated control plants.

[10] = system: Magnaporthe grisea (Pyricularia oryzae, PYRIOR); test: microbe, parasite or virus in culture; format: cell-based; conditions: read-out: T9 PYRIOR in vitro Growth Inhibition

SMILES | inhibition at 25 ppm [1] | pest or weed control at 100 ppm [2] | pest or weed control at 100 ppm [3] | inhibition at 25 ppm [4] | inhibition at 25 ppm [5] | pest or weed control at 100 ppm [6] | pest or weed control at 100 ppm [7] | inhibition at 25 ppm (Ustilago maydis (USTIMA)) | inhibition at 25 ppm [8] | pest or weed control at 100 ppm [9] | inhibition at 25 ppm [10]
COC(=O)CCC(=O)OCOc1c(OC)ccnc1C(=O)N[C@H]1COC(=O)[C@H](Cc2ccccc2)[C@@H](OC(=O)C(C)C)[C@H](C)OC1=O [Compound 32] | < 80% | 75 to 100% | 75 to 100% | < 80% | > 80% | 75 to 100% | < 25% | < 80% | < 80% | 25 to 74% | > 80%
COc1ccnc(C(=O)N[C@H]2COC(=O)[C@H](Cc3ccccc3)[C@@H](OC(=O)C(C)C)[C@H](C)OC2=O)c1OCOC(=O)C1CCCO1 (some centres unmarked) [Compound 34] | < 80% | 75 to 100% | 75 to 100% | < 80% | > 80% | 75 to 100% | < 25% | < 80% | < 80% | 25 to 74% | < 80%
CCCOCC(=O)OCOc1c(OC)ccnc1C(=O)N[C@H]1COC(=O)[C@H](Cc2ccccc2)[C@@H](OC(=O)C(C)C)[C@H](C)OC1=O [Compound 35] | > 80% | 75 to 100% | 75 to 100% | > 80% | > 80% | 75 to 100% | < 25% | < 80% | < 80% | 25 to 74% | > 80%
COc1ccnc(C(=O)N[C@H]2COC(=O)[C@H](Cc3ccccc3)[C@@H](OC(=O)C(C)C)[C@H](C)OC2=O)c1OCOC(=O)COC(C)C [Compound 36] | > 80% | 75 to 100% | 75 to 100% | < 80% | > 80% | 75 to 100% | < 25% | < 80% | < 80% | < 25% | > 80%
CCCCOCC(=O)OCOc1c(OC)ccnc1C(=O)N[C@H]1COC(=O)[C@H](Cc2ccccc2)[C@@H](OC(=O)C(C)C)[C@H](C)OC1=O [Compound 37] | > 80% | 75 to 100% | 75 to 100% | < 80% | > 80% | 75 to 100% | < 25% | > 80% | < 80% | 25 to 74% | > 80%
COc1ccnc(C(=O)N[C@H]2COC(=O)[C@H](Cc3ccccc3)[C@@H](OC(=O)C(C)C)[C@H](C)OC2=O)c1OCOC(=O)COCC(C)C [Compound 38] | > 80% | 75 to 100% | 75 to 100% | < 80% | > 80% | 75 to 100% | < 25% | < 80% | < 80% | 25 to 74% | > 80%
CCC(C)OCC(=O)OCOc1c(OC)ccnc1C(=O)N[C@H]1COC(=O)[C@H](Cc2ccccc2)[C@@H](OC(=O)C(C)C)[C@H](C)OC1=O (some centres unmarked) [Compound 39] | > 80% | 75 to 100% | 75 to 100% | < 80% | > 80% | 75 to 100% | < 25% | < 80% | < 80% | 25 to 74% | > 80%
COCCOCC(=O)OCOc1c(OC)ccnc1C(=O)N[C@H]1COC(=O)[C@H](Cc2ccccc2)[C@@H](OC(=O)C(C)C)[C@H](C)OC1=O [Compound 40] | > 80% | 75 to 100% | 75 to 100% | > 80% | > 80% | 75 to 100% | < 25% | > 80% | < 80% | 25 to 74% | > 80%
COc1ccnc(C(=O)N[C@H]2COC(=O)[C@H](Cc3ccccc3)[C@@H](OC(=O)C(C)C)[C@H](C)OC2=O)c1OCOC(=O)COC1CCCC1 [Compound 41] | > 80% | 75 to 100% | 75 to 100% | < 80% | > 80% | 75 to 100% | < 25% | > 80% | < 80% | 25 to 74% | > 80%
COc1ccnc(C(=O)N[C@H]2COC(=O)[C@H](Cc3ccccc3)[C@@H](OC(=O)C(C)C)[C@H](C)OC2=O)c1OCOC(=O)COc1ccccc1 [Compound 42] | > 80% | 75 to 100% | 75 to 100% | < 80% | > 80% | < 25% | < 25% | < 80% | < 80% | < 25% | > 80%
COc1ccnc(C(=O)N[C@H]2COC(=O)[C@H](Cc3ccccc3)[C@@H](OC(=O)C(C)C)[C@H](C)OC2=O)c1OC1OC(=O)c2ccccc21 (some centres unmarked) [Compound 43] | > 80% | 75 to 100% | 75 to 100% | < 80% | > 80% | 75 to 100% | < 25% | < 80% | < 80% | 25 to 74% | < 80%
CCOC(=O)OCOc1c(OC)ccnc1C(=O)N[C@H]1COC(=O)[C@H](Cc2ccccc2)[C@@H](OC(=O)C(C)C)[C@H](C)OC1=O [Compound 45] | < 80% | 75 to 100% | 75 to 100% | < 80% | > 80% | 75 to 100% | 25 to 74% | < 80% | < 80% | 25 to 74% | > 80%
CCCOC(=O)OCOc1c(OC)ccnc1C(=O)N[C@H]1COC(=O)[C@H](Cc2ccccc2)[C@@H](OC(=O)C(C)C)[C@H](C)OC1=O [Compound 46] | < 80% | 75 to 100% | 75 to 100% | < 80% | > 80% | 75 to 100% | < 25% | < 80% | < 80% | 25 to 74% | > 80%
COCCOC(=O)OCOc1c(OC)ccnc1C(=O)N[C@H]1COC(=O)[C@H](Cc2ccccc2)[C@@H](OC(=O)C(C)C)[C@H](C)OC1=O [Compound 48] | < 80% | 75 to 100% | 75 to 100% | < 80% | > 80% | 75 to 100% | < 25% | > 80% | < 80% | 75 to 100% | < 80%
COCCC(=O)OCOc1c(OC)ccnc1C(=O)N[C@H]1COC(=O)[C@H](Cc2ccccc2)[C@@H](OCC(C)C)[C@H](C)OC1=O [Compound 54] | > 80% | 75 to 100% | 75 to 100% | < 80% | > 80% | 75 to 100% | < 25% | > 80% | < 80% | 75 to 100% | > 80%
CCCO[C@H]1[C@H](C)OC(=O)[C@@H](NC(=O)c2nccc(OC)c2OCOC(=O)CCOC)COC(=O)[C@@H]1Cc1ccccc1 [Compound 55] | > 80% | 75 to 100% | 75 to 100% | < 80% | > 80% | 75 to 100% | < 25% | < 80% | < 80% | 75 to 100% | > 80%
